Assay results: patent US11001590B2, “Pyrazolopyrimidine derivatives” (BAYER ANIMAL HEALTH GMBH, priority 2016, dated 2021)

Columns and labels:
[1] = test system: Litomosoides sigmodontis third-stage larvae; experiment: In vitro assay 7: Litomosoides sigmodontis L3 (LTMOSI), motility; conditions: 72 h, reduction of motility vs negative control, 72 h incubation
C. elegans Slo-1a = C. elegans Slo-1a (Caenorhabditis elegans, UniProt Q95V25); experiment: In vitro assay 1: C. elegans Slo-1a, action at a recombinant C. elegans CHO cell line (membrane potential measurement)
Sequence of C. elegans Slo-1a (Q95V25 whole entry): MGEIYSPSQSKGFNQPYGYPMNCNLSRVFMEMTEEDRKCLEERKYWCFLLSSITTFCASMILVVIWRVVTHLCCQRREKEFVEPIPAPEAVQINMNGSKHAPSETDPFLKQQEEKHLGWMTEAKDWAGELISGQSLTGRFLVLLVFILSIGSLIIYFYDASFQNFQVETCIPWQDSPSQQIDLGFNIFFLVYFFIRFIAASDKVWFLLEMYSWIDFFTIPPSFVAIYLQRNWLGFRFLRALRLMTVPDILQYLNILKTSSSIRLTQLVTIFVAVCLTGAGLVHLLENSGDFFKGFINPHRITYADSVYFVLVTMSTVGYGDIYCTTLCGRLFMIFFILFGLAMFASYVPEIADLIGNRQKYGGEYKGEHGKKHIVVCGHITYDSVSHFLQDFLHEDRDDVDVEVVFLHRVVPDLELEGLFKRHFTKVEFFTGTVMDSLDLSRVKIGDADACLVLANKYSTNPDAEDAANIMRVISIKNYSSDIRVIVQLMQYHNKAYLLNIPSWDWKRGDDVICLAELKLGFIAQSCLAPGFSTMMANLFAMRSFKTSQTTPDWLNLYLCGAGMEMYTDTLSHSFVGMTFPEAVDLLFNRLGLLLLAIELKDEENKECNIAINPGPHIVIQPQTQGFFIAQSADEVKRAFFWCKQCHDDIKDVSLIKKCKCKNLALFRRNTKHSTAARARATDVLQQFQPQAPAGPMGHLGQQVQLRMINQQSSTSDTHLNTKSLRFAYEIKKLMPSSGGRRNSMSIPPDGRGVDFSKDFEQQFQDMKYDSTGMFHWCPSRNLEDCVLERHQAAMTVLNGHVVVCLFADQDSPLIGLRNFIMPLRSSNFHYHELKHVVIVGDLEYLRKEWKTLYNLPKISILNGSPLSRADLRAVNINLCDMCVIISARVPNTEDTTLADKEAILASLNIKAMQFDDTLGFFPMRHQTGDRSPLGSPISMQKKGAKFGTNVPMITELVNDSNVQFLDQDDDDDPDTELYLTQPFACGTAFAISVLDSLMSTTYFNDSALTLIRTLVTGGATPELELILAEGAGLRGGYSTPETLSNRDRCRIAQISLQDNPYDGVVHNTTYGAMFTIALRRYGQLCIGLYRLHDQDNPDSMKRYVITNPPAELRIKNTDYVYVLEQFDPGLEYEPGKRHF

[2] = log P by HPLC on reversed phase columns (Method L0; [a] acidic, [b] neutral range)
Method: Calibration was done with straight-chain alkan-2-ones (with 3 to 16 carbon atoms) with known log P values (measurement of log P values using retention times with linear interpolation between successive alkanones). Lambda-max-values were determined using UV-spectra from 200 nm to 400 nm and the peak values of the chromatographic signals.

[3] = test system: Dirofilaria immitis microfilariae; experiment: In vitro assay 3: Dirofilaria immitis microfilariae (DIROIM L1), motility; conditions: 72 h, reduction of motility vs negative control, 72 h incubation
[4] = test system: Dirofilaria immitis third-stage larvae; experiment: In vitro assay 4: Dirofilaria immitis (DIROIM L4), motility of larvae; conditions: 72 h
[5] = test system: Nippostrongylus brasiliensis; experiment: In vitro assay 2: Nippostrongylus brasiliensis (NIPOBR), acetylcholine esterase readout; conditions: adult worms, 10 μg/ml (10 ppm), read-out: activity (reduction of AChE compared to negative control)
Method: In Vitro Assay 2: Nippostronqylus Brasiliensis (NIPOBR)
Adult Nippostrongylus brasiliensis were washed with saline buffer containing 100 U/ml penicillin, 0.1 mg/ml streptomycin and 2.5 μg/ml amphotericin B. Test compounds were dissolved in DMSO and worms were incubated in medium in a final concentration of 10 μg/ml (10 ppm) respectively 1 μg/ml (1 ppm). An aliquot of the medium was used to determine the acetylcholine esterase activity in comparison to a negative control. The principle of measuring acetylcholine esterase as readout for anthelmintic activity was described in Rapson et al (1986) and Rapson et al (1987).

| Structure (SMILES) | EC50 [1] [µg/mL] | EC50 (C. elegans Slo-1a) [nM] | chromatographic logP [2] | EC50 [3] [µg/mL] | EC50 [4] [µg/mL] | inhibition at 10 µg/mL [5] [%] |
| --- | --- | --- | --- | --- | --- | --- |
| Cc1nn2c(C(C)C)c(C(=O)N[C@H]3CCc4ccccc43)cnc2c1-c1c(F)cccc1Cl [Example 132] | < 0.1 | 6.31 | 4.71 | < 0.1 | < 0.1 |  |
| Cc1nn2c(C(C)C)c(C(=O)N[C@H]3CCCc4ccccc43)cnc2c1-c1cccc(F)c1F [Example 134] | < 0.1 | 12.6 | 4.9 | < 0.1 | < 0.1 |  |
| Cc1nn2c(C(C)C)c(C(=O)N[C@H]3CCc4ccccc43)cnc2c1-c1cccc2c1OC(F)(F)O2 [Example 147] | < 0.1 | 50.1 | 5.17 | < 0.1 | < 0.1 |  |
| Cc1nn2c(C(C)C)c(C(=O)N[C@H]3CCOc4ccccc43)cnc2c1-c1cccc(C(F)F)c1 [Example 153] | < 0.1 | 126 | 4.41 | < 0.1 | < 0.1 |  |
| Cc1nn2c(C(C)C)c(C(=O)N[C@H]3CCOc4ccccc43)cnc2c1-c1c(Cl)cccc1Cl [Example 154] | < 0.1 | 6.31 | 4.56 | < 0.1 | < 0.1 |  |
| Cc1nn2c(C(C)C)c(C(=O)N[C@H]3CCc4ccccc43)cnc2c1-c1cccc(Cl)c1Cl [Example 168] | < 0.1 | 3.16 | 5.13 | < 0.1 | < 0.1 |  |
| Cc1nn2c(C(C)C)c(C(=O)N[C@H]3CCCc4ccccc43)cnc2c1-c1cccc(Cl)c1Cl [Example 169] | < 0.1 | 6.31 | 5.46 | < 0.1 | < 0.1 |  |
| Cc1nn2c(C(C)C)c(C(=O)N[C@H]3CCc4ccccc43)cnc2c1-c1cc(Cl)ccc1Cl [Example 171] | < 0.1 | 5.01 | 5.31 | < 0.1 | < 0.1 |  |
| Cc1nn2c(C(C)C)c(C(=O)N[C@H]3CCOc4ccccc43)cnc2c1-c1cc(Cl)ccc1Cl [Example 173] | < 0.1 | 3.98 | 5 | < 0.1 | < 0.1 |  |
| Cc1nn2c(C(C)C)c(C(=O)N[C@H]3CCOc4ccccc43)cnc2c1-c1cccc(OC(C)C)c1F [Example 188] |  | 12.6 | 4.79 | < 1 |  | > 80 |
| Cc1nn2c(C(C)C)c(C(=O)N[C@H]3CCOc4ccccc43)cnc2c1-c1cccc(F)c1Cl [Example 191] | < 0.1 | 1.26 | 4.46 | < 0.1 | < 0.1 |  |
| Cc1ccccc1-c1c(C)nn2c(C(C)C)c(C(=O)N[C@H]3CCOc4ccccc43)cnc12 [Example 193] | < 0.1 | 0.794 | 4.44 | < 0.1 | < 0.1 |  |
| CCC(C)c1c(C(=O)N[C@H]2CCOc3ccccc32)cnc2c(-c3c(F)cccc3Cl)c(C)nn12 (stereo partly shown) [Example 226] | < 0.1 | 20 | 4.72 | < 0.1 | < 0.1 |  |
| COCc1cccc(-c2c(C)nn3c(C(C)C)c(C(=O)N[C@H]4CCc5ccccc54)cnc23)c1 [Example 300] | < 0.1 | 6.31 | 4.43 | < 1 | < 0.1 |  |
| Cc1nn2c(C(C)C)c(C(=O)N[C@H]3CCc4ccccc43)cnc2c1-c1ccc(F)cc1 [Example 302] | < 0.1 | 12.6 | 4.63 | < 0.1 | < 0.1 |  |
| Cc1nn2c(C(C)C)c(C(=O)N[C@H]3CCc4ccccc43)cnc2c1-c1cc(F)cc(F)c1 [Example 323] | < 0.1 | 39.8 | 5.02 | < 0.1 | < 1 |  |
| Cc1nn2c(C(C)C)c(C(=O)N[C@H]3CCc4ccccc43)cnc2c1-c1cc(F)cc(Cl)c1 [Example 324] | < 0.1 | 31.6 | 5.49 | < 0.1 | < 0.1 |  |
| COc1cc(F)cc(-c2c(C)nn3c(C(C)C)c(C(=O)N[C@H]4CCc5ccccc54)cnc23)c1 [Example 325] | < 0.1 | 20 | 4.8 | < 0.1 | < 0.1 |  |
| Cc1nn2c(C(C)C)c(C(=O)N[C@H]3CCc4ccccc43)cnc2c1-c1cccc(OC(F)F)c1 [Example 337] | < 0.1 | 12.6 | 4.7 | < 0.1 | < 1 |  |
